Among the data in ChEMBL document CHEMBL1137403, “Discovery of 2-[4-{{2-(2S,5R)-2-cyano-5-ethynyl-1-pyrrolidinyl]-2-oxoethyl]amino]- 4-methyl-1-piperidinyl]-4-pyridinecarboxylic acid (ABT-279): a very potent, selective, effective, and well-tolerated inhibitor of dipeptidyl peptidase-IV, useful for the treatment of diabetes” (J Med Chem, 2006) are Ki values, retold here.

In one assay the target is Dipeptidyl peptidase 8 (Homo sapiens, UniProt Q6V1X1).
A further assay addresses Dipeptidyl peptidase 9 (Homo sapiens, UniProt Q86TI2).

Chain of Dipeptidyl peptidase 8 (Q6V1X1 whole entry): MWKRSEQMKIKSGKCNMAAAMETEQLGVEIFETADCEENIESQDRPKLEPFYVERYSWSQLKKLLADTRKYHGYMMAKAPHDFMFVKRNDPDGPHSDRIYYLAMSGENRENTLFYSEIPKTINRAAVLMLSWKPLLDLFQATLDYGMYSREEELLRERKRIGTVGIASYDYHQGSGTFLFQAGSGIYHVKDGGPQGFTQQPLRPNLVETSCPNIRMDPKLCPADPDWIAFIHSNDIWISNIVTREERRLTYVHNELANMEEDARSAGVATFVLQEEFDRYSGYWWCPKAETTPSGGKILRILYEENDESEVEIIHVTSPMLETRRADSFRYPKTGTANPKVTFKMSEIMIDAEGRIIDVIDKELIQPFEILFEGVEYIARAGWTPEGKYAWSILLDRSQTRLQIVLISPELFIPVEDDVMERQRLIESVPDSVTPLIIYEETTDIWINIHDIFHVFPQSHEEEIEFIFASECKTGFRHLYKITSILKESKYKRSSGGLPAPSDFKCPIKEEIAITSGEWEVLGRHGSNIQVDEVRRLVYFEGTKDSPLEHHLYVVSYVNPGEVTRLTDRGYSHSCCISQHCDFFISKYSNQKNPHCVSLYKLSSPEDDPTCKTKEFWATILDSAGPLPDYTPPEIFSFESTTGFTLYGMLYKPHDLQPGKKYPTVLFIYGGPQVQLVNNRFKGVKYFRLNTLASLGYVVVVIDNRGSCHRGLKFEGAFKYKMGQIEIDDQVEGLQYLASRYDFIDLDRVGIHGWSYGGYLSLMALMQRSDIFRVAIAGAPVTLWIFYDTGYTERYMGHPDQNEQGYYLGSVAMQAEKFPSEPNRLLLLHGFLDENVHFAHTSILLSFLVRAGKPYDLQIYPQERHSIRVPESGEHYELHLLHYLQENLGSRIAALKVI
Chain of Dipeptidyl peptidase 9 (Q86TI2 whole entry): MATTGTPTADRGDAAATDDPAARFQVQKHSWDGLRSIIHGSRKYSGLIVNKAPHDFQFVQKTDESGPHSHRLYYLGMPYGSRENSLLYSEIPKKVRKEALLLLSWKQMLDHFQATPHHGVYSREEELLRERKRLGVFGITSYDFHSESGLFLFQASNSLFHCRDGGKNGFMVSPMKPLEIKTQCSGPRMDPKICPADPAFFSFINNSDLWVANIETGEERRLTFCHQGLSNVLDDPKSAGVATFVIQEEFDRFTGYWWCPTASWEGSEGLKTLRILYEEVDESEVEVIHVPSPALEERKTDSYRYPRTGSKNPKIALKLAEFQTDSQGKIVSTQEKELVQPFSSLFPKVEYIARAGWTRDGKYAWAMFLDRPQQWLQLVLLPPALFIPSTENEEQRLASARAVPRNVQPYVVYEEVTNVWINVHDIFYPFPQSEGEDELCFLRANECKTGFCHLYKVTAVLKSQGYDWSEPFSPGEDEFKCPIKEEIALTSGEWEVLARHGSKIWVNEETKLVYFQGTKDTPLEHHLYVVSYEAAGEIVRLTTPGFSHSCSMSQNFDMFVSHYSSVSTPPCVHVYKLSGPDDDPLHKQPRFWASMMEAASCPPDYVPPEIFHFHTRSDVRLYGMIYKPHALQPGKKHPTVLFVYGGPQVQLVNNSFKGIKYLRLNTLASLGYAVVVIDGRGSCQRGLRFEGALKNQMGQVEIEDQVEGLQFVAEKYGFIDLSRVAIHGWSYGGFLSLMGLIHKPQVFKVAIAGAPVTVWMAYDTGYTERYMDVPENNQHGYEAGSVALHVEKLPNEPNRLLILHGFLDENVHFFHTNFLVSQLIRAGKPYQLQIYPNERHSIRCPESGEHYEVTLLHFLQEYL

On to `C#C[C@H]1CC[C@@H](C#N)N1C(=O)CNC12CC3CC(CC(O)(C3)C1)C2`, for which the Ki on Dipeptidyl peptidase 8 and on Dipeptidyl peptidase 9 was over 30 µM throughout.
